According to ChEMBL document CHEMBL3507680, “University of Dundee, Gates Library screen for HepG2 cell viability”:

Test: Human HepG2 cell viability assay in 384 well format
Assay type: toxicity, cell-based
Design: dose 125 nL, time 70.5 hour; cytotoxicity at 70.5 h: concentration not given beside the values
Details: HepG2 cells, read-out: Inhibition

SMILES | cytotoxicity at 70.5 h [%]
Cc1nccc(CNC(=O)N2CCN(Cc3ccccc3)C[C@H]2C)n1 | -8.68
CC/C=C(/C)C(=O)N1CCN(C2=NCC(C)S2)CC1 (configuration not stated) | 32.7
CN1CCC(NC(=O)Nc2ccc(F)c(Br)c2)C1=O (configuration not stated) | 21
CCn1nc2c(cc1=O)CN(Cc1ccc(-n3cccn3)cc1)CC2 | 2.14
CC(C)n1nc2c(cc1=O)CN(Cc1ccc(-n3cccn3)cc1)CC2 | 24.1
Cc1ccc(-n2ccnc2)c(C(=O)NCCCN(C)C)c1 | 2
CC(CCS(C)(=O)=O)NC(=O)NCc1ccc2c(c1)CCC2 (configuration not stated) | -6.48
Cc1cccc(C)c1OCCNC(=O)C[S+]([O-])C1CCCC1 (configuration not stated) | -5.72
O=C(c1cnns1)N1CCN(c2ccc(F)cc2Cl)CC1 | 4.28
O=C(C[S+]([O-])C1CCCC1)NCCOc1cccc(Cl)c1 (configuration not stated) | -6.11
Cc1cc(CN2CCN(S(=O)(=O)c3c(C)c(Cl)cc(C)c3Cl)CC2)on1 | -9.59
Cc1cc(C(=O)NCCN2CCCC(C)C2)nn1C(C)(C)C (configuration not stated) | -22.7
CC(C)C(NC(=O)NCc1cccnc1N(C)C)c1cccs1 (configuration not stated) | -20.8
CCNc1cc2c(nn1)CCN(C(=O)c1ccc(-n3cccn3)nc1)C2 | -15.9
O=C(Cn1cc(-c2ccccc2)cn1)N1CCNC1=O | -21.6
O=C(CCOc1ccccc1F)N1CCC(O)CC1 | -9.54
CC(CNC(=O)c1c[nH]nn1)Oc1ccc(Cl)cc1 (configuration not stated) | -22.2
NC(=O)c1cc(C2CCCN(Cc3ccc4c(c3)OCCO4)C2)n[nH]1 (configuration not stated) | -22.9
Cc1nnc(-c2cccc(C#N)c2)n1C1CCN(C2CC2)C1=O (configuration not stated) | 46

SMILES | cytotoxicity at 70.5 h [%]
Cn1ncnc1NCc1ccc(Cl)cc1 | -9.65
Cn1ncnc1NCc1ccccc1Cl | -15.3
CCCC(=O)NC1CCCN(Cc2cccs2)C1 (configuration not stated) | -18.1
CCN(CC1CCCO1)C(=O)NCCNC(=O)c1ccccc1F (configuration not stated) | 43.4
CCCN(CCc1ccccn1)C(=O)CCc1cnn(C)c1 | -10.1
O=C(C1CCCN(CCc2ccc3c(c2)CCO3)C1)N1CCCC1 (configuration not stated) | 44.9
CC(C)CC(c1nc(-c2cnn(C)c2)no1)N1CCCCC1=O (configuration not stated) | -3.04
CCC(=O)NC1CCCN(Cc2ccc(NC(C)=O)cc2)C1 (configuration not stated) | -4.65
COc1cccc(CC2CCCN2CCCO)c1 (configuration not stated) | -2.11
CN(CC1CCN(CCO)CC1)CC(O)c1ccc(F)c(F)c1 (configuration not stated) | 7.09
CCCNC(=O)c1cccc2ncccc12 | -4.07
Cc1ccc(C(C)N(C)CCS(=O)(=O)CCC(N)=O)cc1 (configuration not stated) | -6.4
COc1ccc(C(C)N2CCC(C(=O)N(C)C)CC2)cc1Cl (configuration not stated) | -7.99
O=C(CNc1cccc(S(=O)(=O)C(F)F)c1)Nc1ccccc1 | -5.1
COc1ccc(C(C)N2CCC(CNC(C)=O)CC2)cc1Cl (configuration not stated) | -1.84
CC(C)c1ccc(-n2cc(O)c(C(=O)O)n2)cc1 | -5.79
O=C(NCc1ccco1)Nc1cccc(S(=O)(=O)C(F)F)c1 | -8.46
COc1ccccc1C(C)CC(=O)N1CCN(S(N)(=O)=O)CC1 (configuration not stated) | -3.69
CC(C)(C)[S+]([O-])CCNC(=O)c1ccc(Cl)c2cccnc12 (configuration not stated) | -6.1

SMILES | cytotoxicity at 70.5 h [%]
O=C(CNc1ccccc1S(=O)(=O)C(F)F)NCc1ccco1 | -5.76
CC(=O)N1CCN(C2CCCCc3ccccc32)CC1 (configuration not stated) | -1.72
NC(=O)N1CCCN(C2CCCCc3ccccc32)CC1 (configuration not stated) | -1.64
O=C(c1ccc2c(c1)[nH]c(=O)n2C1CCCC1)N1CCC1 | -3.8
O=C(NCC1(O)CCOC1)NCC1(c2ccccc2Cl)CC1 (configuration not stated) | -2.47
O=C(NCC1(O)CCOC1)NCC1(c2ccccc2Cl)CCC1 (configuration not stated) | 0.471
Cn1cc(CCCN2CCN(C(=O)c3cccc(O)c3)CC2)cn1 | -3.56
CC(=O)N1CCCN(C2CCCCc3ccccc32)CC1 (configuration not stated) | -3.31
O=C(c1ccsc1)N1CCN(CC(O)c2cccc(F)c2)CC1 (configuration not stated) | 9.92
Cc1ccccc1C(C)CC(=O)N1CC[C@H](O)C1 (some centres not stated) | -2.39
O=C(NCC1(O)CCOC1)c1ccccc1Cl (configuration not stated) | -3.89
COc1ccc(CC2CCCN2CCCC#N)cc1 (configuration not stated) | -4.33
CC(=O)N1CCN(C2CCc3ccccc32)CC1 (configuration not stated) | -2.55
COCCN1CCC(CNC(=O)C2(C#N)CCCCC2)CC1 | -8.47
O=C(c1cccs1)N1CCN(C(=O)c2ncoc2-c2ccco2)CC1 | 5.95
CC(Oc1ccccc1C#N)C(=O)NC1CC1 (configuration not stated) | -8.65
CN(Cc1c(F)cccc1Cl)C(=O)CN(C)C1CCc2ccccc21 (configuration not stated) | -5.53
Cc1ccsc1CNC(=O)c1ccc(N2CCNC2=O)cc1 | -10.8
CCc1ccc(CNC(=O)c2ccc(N3CCOC3=O)cc2)s1 | 20.2
